Reference: patent US20250049930A1, “PROTAC MOLECULES TARGETING FOXP3 AND USES THEREOF” (CEDARS-SINAI MEDICAL CENTER, priority 2022, published 2025)
Residues, ends and D or L forms follow the SMILES beside them. *: point of attachment. X1 = O=C1CCC(N2C(=O)c3cccc(*)c3C2=O)C(=O)N1; PEG4 = NCCOCCOCCOCCOCCC(=O)O

Legend:
Tregs = assay: Treg immunosuppression co-culture assay with human PBMC (CFSE dilution, IFNγ, TNFα); assay type: cell-based; conditions: human CD4+ PBMC treated 72 hours (10 μM), co-cultured with CD4− PBMC stimulated with αCD3 and αCD28; difference to P60 significant
Description: FIGS. 7A-7C depict that PF decreases FoxP3 and the immunosuppressive function of human CD4+ cells. Human peripheral blood mononuclear cells (PBMC) were treated in vitro with PF (10 μM) or various control drugs (10 μM) for 3 days (FIG. 7A). PMA 10 ng/ml and Ionomycin 2 μg/ml were added during PF treatment to induce FoxP3 (FIG. 7A). Resulting cells were gated on CD4 and assessed for FoxP3 expression by flow cytometry. To treat Tregs, CD4+ PBMC were isolated and treated with PF or various controls for 72 hours. […] CD8 proliferation was measured using a CFSE dilution assay. To assess CD8+ effector cells, CD4 negative splenocytes were CFSE labeled and CFSE dilution was measured in CD8+ cells by flow cytometry (FIG. 7B). In the same experiment, CD8+ cells were assessed for activation by gating on CD8 and assessing IFNγ or TNFα by flow cytometry (FIG. 7C). […]
Human peripheral blood mononuclear cells (PBMC) were treated with phorbol 12-myristate 13-acetate (PMA) (10 ng/ml) and Ionomycin (2 μg/ml) to increase FoxP3 expression. […] CD8 proliferation was measured using a CFSE dilution assay. Immune activation was assessed by measuring TNFα or IFNγ in CD8+ or CD4+ T cells using flow cytometry.
P60 was designed to bind both mouse and human FoxP3. Therefore, we evaluated PF using human peripheral blood mononuclear cells (PBMC). […] Resulting cells were gated on CD4 and assessed for FoxP3 expression by flow cytometry. […]

FoxP3 = target: T1, FoxP3 (Mus musculus, UniProt Q99JB6); assay: FoxP3 positive CD4+ cells in peripheral blood and spleen of mice after PF administration; assay type: in vivo
T1 construct: from tissue; host or cells: peripheral blood and spleen of mice
T1 sequence (Q99JB6 1-429): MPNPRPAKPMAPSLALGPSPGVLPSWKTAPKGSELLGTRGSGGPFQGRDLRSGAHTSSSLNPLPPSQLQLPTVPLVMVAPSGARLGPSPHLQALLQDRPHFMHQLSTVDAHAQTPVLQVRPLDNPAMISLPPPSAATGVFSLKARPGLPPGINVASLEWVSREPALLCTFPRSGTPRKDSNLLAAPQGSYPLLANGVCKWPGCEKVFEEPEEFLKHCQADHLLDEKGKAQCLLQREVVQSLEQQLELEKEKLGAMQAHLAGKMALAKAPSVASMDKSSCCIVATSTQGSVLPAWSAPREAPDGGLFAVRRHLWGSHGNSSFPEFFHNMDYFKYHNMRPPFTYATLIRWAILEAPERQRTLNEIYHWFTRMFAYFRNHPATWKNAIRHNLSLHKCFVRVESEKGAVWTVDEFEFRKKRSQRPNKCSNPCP
Description: FIGS. 2A-2E depict that a proteolysis-targeting chimera (PROTAC) targeting FoxP3 (PF) degraded FoxP3 in vitro and in vivo. P-FoxP3 forms a ternary complex with cereblon and FoxP3. Surface plasmon resonance (SPR) assay was used to measure the equilibrium dissociation constant (KD) for the ternary complex consisting of cereblon, P-FoxP3 and FoxP3 (FIG. 2A). SPR assay was used to measure the KD for the binary complex consisting of cereblon and P-FoxP3 (FIG. 2B). Mouse splenocytes were treated in vitro with varying PF concentrations and percent of CD4+ cells staining for intracellular FoxP3 was assessed by flow cytometry. (FIG. 2C). Mice received 0.1 mmole of PF intraperitoneally (i.p.) (FIGS. 2D and 2E). 72 hours later, FoxP3 positive CD4+ cells in peripheral blood and spleen were assessed by flow cytometry (FIG. 2D). FoxP3 positive CD4+ cells in peripheral blood were assessed by flow cytometry at various timepoints following PF administration (FIG. 2E). Representative results from duplicate experiments are shown.
To assess T cells in mice, CD4+ FoxP3+ cells from serial peripheral blood draws were assessed by flow cytometry. To assess lymphocytes in mice treated with various therapies, lymph nodes and spleens were harvested to make single-cell suspensions that were activated by a CA9 peptide (AYEQLLSHL) for 4 days, and then flow cytometry was used to assess CD4, CD8, IFNγ, TNFα, CD62L CD44, and Eomes.
To determine if PF results in the degradation of FoxP3, mouse splenocytes were treated in vitro with varying concentrations of PF and percent of CD4+ cells staining for intracellular FoxP3 was assessed by flow cytometry. […] The next step was to determine if PF can decrease FoxP3 in vivo. […] 72 hours later, FoxP3 positive CD4+ cells in peripheral blood and spleen were assessed by flow cytometry. […] To understand the time course of FoxP3 decrease, serial blood draws were assessed after a single injection of PF (FIG. 2E). FoxP3 positive CD4+ cells in peripheral blood were assessed by flow cytometry at various timepoints following the PF administration. […]

`CSCC[C@H](NC(=O)[C@H](C)NC(=O)[C@H](Cc1ccccc1)NC(=O)[C@H](Cc1ccccc1)NC(=O)[C@@H]1CCCN1C(=O)[C@H](Cc1c[nH]c2ccccc12)NC(=O)[C@H](CCSC)NC(=O)[C@H](CCCCN)NC(=O)[C@H](CCCNC(=N)N)NC(=O)[C@H](Cc1ccccc1)NC(=O)[C@H](CO)NC(=O)[C@H](CCC(N)=O)NC(=O)[C@H](Cc1ccccc1)NC(=O)[C@H](CC(=O)O)NC(=O)[C@H](CCCNC(=N)N)NC(=O)CCOCCOCCOCCOCCNc1cccc2c1C(=O)N(C1CCC(=O)NC1=O)C2=O)C(=O)O` (some centres unmarked) [PF, Pomalidomide-PEG4-RDFQSFRKMWPFFAM] ({X1-PEG4}-RDFQSFRKMWPFFAM-OH) was tested, and the “CD8+ lymphocyte activation as measured by IFNγ or TNFα” value (Tregs) was “greatest enhancement of CD8+ lymphocyte activation”, the “CD8+ lymphocyte proliferation (CFSE dilution)” value (Tregs) was “highest CD8+ lymphocyte proliferation” and the “FoxP3 positive CD4+ cells in peripheral blood, time course” value (FoxP3; serial blood draws after a single injection of PF) was “immediately dropped as measured on day 2, and slightly came up on day 8”. For the same compound, the “FoxP3 positive CD4+ cells in peripheral blood and spleen” value (FoxP3; single dose 0.1 mmole i.p., 72 hours later, peripheral decrease p<0.0008) was “decreased 3 days later in both spleen and peripheral blood” and the “duration of FoxP3 decrease after a single PF dose” value (FoxP3; spleen and peripheral lymphocytes) was “at least 8 days”.
